Measurements: PMC9386811 (ACS Omega, 2022)

Each compound was assayed against alpha-glucosidase from Saccharomyces cerevisiae (Baker's yeast) (Saccharomyces cerevisiae, UniProt P53341) (assay: In vitro α-glucosidase inhibitory activity).
Assay type: biochemical

Sequence of alpha-glucosidase from Saccharomyces cerevisiae (Baker's yeast) (P53341 whole entry): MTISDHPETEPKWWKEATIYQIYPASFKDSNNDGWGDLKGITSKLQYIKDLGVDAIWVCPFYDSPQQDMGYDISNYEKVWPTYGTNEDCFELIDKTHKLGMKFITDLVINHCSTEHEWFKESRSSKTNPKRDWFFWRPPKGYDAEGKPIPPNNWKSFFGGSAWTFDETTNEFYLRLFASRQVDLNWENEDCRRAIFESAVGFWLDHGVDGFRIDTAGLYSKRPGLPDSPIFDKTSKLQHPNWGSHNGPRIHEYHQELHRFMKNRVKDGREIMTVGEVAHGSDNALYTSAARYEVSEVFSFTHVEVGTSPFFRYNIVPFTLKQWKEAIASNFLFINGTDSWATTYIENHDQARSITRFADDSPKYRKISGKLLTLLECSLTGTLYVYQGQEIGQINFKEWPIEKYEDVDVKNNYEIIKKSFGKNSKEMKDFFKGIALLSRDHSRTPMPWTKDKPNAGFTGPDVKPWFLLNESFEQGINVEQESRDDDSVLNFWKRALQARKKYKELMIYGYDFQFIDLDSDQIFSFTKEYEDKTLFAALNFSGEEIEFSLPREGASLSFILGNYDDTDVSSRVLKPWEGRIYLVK

Row | Structure (SMILES) | IC50
1 | CCCCCCSc1nc2ccccc2n1CC(=O)NN1C(=O)CSC1c1ccccc1OC (stereo not drawn) [Compound 15, 2-[2-(Hexylthio)-1H-benzo[d]imidazole-1-yl]-N-[2-(2-methoxyphenyl)-4-oxothiazolidin-3-yl]acetamide] | 89.28 ± 0.52 µM
2 | CCCCCCSc1nc2ccccc2n1CC(=O)NN1C(=O)CSC1c1ccc(OC)cc1 (stereo not drawn) [Compound 17, 2-[2-(Hexylthio)-1H-benzo[d]imidazole-1-yl]-N-[2-(4-methoxyphenyl)-4-oxothiazolidin-3-yl]acetamide] | 63.68 ± 0.52 µM
3 | CCCCCCSc1nc2ccccc2n1CC(=O)NN1C(=O)CSC1c1ccc(C)o1 (stereo not drawn) [Compound 19, 2-[2-(Hexylthio)-1H-benzo[d]imidazole-1-yl]-N-[2-(5-methylfuran-2-yl)-4-oxothiazolidin-3-yl]acetamide] | 39.06 ± 0.27 µM
4 | CCCCCCSc1nc2ccccc2n1CC(=O)NN1C(=O)CSC1c1cccs1 (stereo not drawn) [Compound 21, 2-[2-(Hexylthio)-1H-benzo[d]imidazole-1-yl]-N-[4-oxo-2-(thiophen-2-yl)-thiazolidin-3-yl]acetamide] | 54.4 ± 0.65 µM
5 | CCCCCCSc1nc2ccccc2n1CC(=O)NN1C(=O)CSC1c1ccc2ccccc2c1 (stereo not drawn) [Compound 22, 2-[2-(Hexylthio)-1H-benzo[d]imidazole-1-yl]-N-[2-(naphthalen-2-yl)-4-oxothiazolidin-3-yl]acetamide] | 41 ± 0.36 µM

Now those with a lower IC50, led by results:

Row | IC50 | Structure (SMILES)
6 | 5.22 ± 0.14 µM | CCCCCCSc1nc2ccccc2n1CC(=O)NN1C(=O)CSC1c1ccc([N+](=O)[O-])cc1 (stereo not drawn) [Compound 5, 2-[2-(Hexylthio)-1H-benzo[d]imidazole-1-yl]-N-[2-(4-nitrophenyl)-4-oxothiazolidin-3-yl]acetamide]
7 | 5.69 ± 0.1 µM | CCCCCCSc1nc2ccccc2n1CC(=O)NN1C(=O)CSC1c1ccc(C=O)cc1 (stereo not drawn) [Compound 8, 2-[2-(Hexylthio)-1H-benzo[d]imidazole-1-yl]-N-[2-(4-formylphenyl)-4-oxothiazolidin-3-yl]acetamide]
8 | 24.1 ± 0.3 µM | CCCCCCSc1nc2ccccc2n1CC(=O)NN1C(=O)CSC1c1cccc(OC)c1O (stereo not drawn) [Compound 11, 2-[2-(Hexylthio)-1H-benzo[d]imidazole-1-yl]-N-[-2-(2-hydroxy-3-methoxyphenyl)-4-oxothiazolidin-3-yl]acetamide]
9 | 33.4 ± 0.38 µM | CCCCCCSc1nc2ccccc2n1CC(=O)NN1C(=O)CSC1c1ccc(Cl)cc1Cl (stereo not drawn) [Compound 12, 2-[2-(Hexylthio)-1H-benzo[d]imidazole-1-yl]-N-[2-(2,4-dichlorophenyl)-4-oxothiazolidin-3-yl]acetamide]
10 | 10.2 ± 0.12 µM | CCCCCCSc1nc2ccccc2n1CC(=O)NN1C(=O)CSC1c1ccc(O)c(OC)c1 (stereo not drawn) [Compound 14, 2-[2-(Hexylthio)-1H-benzo[d]imidazole-1-yl]-N-[2-(4-hydroxy-3-methoxyphenyl)-4-oxothiazolidin-3-yl]acetamide]
11 | 26.38 ± 0.18 µM | CCCCCCSc1nc2ccccc2n1CC(=O)NN1C(=O)CSC1c1ccc(F)cc1 (stereo not drawn) [Compound 23, 2-[2-(Hexylthio)-1H-benzo[d]imidazole-1-yl]-N-[2-(4-fluorophenyl)-4-oxothiazolidin-3-yl]acetamide]
12 | 23.7 ± 0.25 µM | CCCCCCSc1nc2ccccc2n1CC(=O)NN1C(=O)CSC1c1ccc(C)cc1 (stereo not drawn) [Compound 24, 2-[2-(Hexylthio)-1H-benzo[d]imidazole-1-yl)-N-[4-oxo-2-(p-tolyl)thiazolidin-3-yl]acetamide]
